We go through two compounds from the kinase profiling compilation of Christmann-Franck et al. (2016).

Among the targets are AAK1 (human) (UniProt Q2M2I8); ANKK1 (human) (UniProt Q8NFD2); BMPR1B (human) (UniProt O00238); CAMK2A (human) (UniProt Q9UQM7); CAMK2G (human) (UniProt Q13555); CDK16 (human) (UniProt Q00536); CSNK1G1 (human) (UniProt Q9HCP0); EIF2AK2 (human) (UniProt P19525); GAK (human) (UniProt O14976); LATS2 (human) (UniProt Q9NRM7); MAP2K6 (human) (UniProt P52564); MAPK10 (human) (UniProt P53779); MAPK14 (human) (UniProt Q16539); MAPK8 (human) (UniProt P45983); MAPK9 (human) (UniProt P45984); MINK1 (human) (UniProt Q8N4C8); PAK7 (human) (UniProt Q9P286); PIK3CB (human) (UniProt P42338); PIM1 (human) (UniProt P11309); PLK4 (human) (UniProt O00444); RPS6KA1 KD2 (human) (UniProt Q15418); RPS6KA2 KD2 (human) (UniProt Q15349); RPS6KA6 KD2 (human) (UniProt Q9UK32); SRPK1 (human) (UniProt Q96SB4); STK25 (human) (UniProt O00506); STK38L (human) (UniProt Q9Y2H1); TAOK3 (human) (UniProt Q9H2K8); TLK1 (human) (UniProt Q9UKI8); TLK2 (human) (UniProt Q86UE8); TNIK (human) (UniProt Q9UKE5); ULK1 (human) (UniProt O75385); ULK3 (human) (UniProt Q6PHR2); ZAP70 (human) (UniProt P43403); AKT2 (human) (UniProt P31751); CDK11A (human) (UniProt Q9UQ88).

Common to all, as to experiment: KINOMEscan competition binding
Conditions in all cases: compound 10.0 µM

Sequence of PAK7 (human) (Q9P286 whole entry, looked up): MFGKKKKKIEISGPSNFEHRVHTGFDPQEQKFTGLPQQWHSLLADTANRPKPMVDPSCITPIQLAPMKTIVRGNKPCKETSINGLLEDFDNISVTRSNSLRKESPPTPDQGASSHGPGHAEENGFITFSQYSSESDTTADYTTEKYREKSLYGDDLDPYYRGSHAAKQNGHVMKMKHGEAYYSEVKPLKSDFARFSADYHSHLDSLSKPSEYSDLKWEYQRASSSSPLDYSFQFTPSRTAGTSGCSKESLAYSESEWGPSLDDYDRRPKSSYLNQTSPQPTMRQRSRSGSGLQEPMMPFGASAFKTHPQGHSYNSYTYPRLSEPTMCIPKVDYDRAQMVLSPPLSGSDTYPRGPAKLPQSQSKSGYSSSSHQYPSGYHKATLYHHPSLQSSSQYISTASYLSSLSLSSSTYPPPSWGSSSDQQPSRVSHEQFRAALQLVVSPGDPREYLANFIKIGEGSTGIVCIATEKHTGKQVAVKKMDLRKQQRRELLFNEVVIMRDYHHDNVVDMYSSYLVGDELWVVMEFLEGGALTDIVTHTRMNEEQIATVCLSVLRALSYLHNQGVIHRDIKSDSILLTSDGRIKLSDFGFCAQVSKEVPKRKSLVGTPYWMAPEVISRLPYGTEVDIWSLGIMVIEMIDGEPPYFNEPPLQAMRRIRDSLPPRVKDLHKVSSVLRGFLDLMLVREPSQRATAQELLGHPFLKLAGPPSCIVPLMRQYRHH
Sequence of STK38L (human) (Q9Y2H1 whole entry, looked up): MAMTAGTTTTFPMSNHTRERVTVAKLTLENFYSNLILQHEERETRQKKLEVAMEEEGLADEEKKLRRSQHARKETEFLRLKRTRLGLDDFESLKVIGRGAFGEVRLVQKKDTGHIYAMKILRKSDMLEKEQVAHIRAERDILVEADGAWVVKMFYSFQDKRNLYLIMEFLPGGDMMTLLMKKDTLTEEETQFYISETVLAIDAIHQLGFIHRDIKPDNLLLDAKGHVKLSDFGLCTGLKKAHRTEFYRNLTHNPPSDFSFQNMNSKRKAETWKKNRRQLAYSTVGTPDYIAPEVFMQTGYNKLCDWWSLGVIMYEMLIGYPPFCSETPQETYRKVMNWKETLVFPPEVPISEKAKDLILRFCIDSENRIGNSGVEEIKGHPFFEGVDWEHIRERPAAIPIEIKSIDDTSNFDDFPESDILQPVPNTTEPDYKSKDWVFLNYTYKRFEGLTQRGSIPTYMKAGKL
Sequence of RPS6KA1 KD2 (human) (Q15418 whole entry, looked up): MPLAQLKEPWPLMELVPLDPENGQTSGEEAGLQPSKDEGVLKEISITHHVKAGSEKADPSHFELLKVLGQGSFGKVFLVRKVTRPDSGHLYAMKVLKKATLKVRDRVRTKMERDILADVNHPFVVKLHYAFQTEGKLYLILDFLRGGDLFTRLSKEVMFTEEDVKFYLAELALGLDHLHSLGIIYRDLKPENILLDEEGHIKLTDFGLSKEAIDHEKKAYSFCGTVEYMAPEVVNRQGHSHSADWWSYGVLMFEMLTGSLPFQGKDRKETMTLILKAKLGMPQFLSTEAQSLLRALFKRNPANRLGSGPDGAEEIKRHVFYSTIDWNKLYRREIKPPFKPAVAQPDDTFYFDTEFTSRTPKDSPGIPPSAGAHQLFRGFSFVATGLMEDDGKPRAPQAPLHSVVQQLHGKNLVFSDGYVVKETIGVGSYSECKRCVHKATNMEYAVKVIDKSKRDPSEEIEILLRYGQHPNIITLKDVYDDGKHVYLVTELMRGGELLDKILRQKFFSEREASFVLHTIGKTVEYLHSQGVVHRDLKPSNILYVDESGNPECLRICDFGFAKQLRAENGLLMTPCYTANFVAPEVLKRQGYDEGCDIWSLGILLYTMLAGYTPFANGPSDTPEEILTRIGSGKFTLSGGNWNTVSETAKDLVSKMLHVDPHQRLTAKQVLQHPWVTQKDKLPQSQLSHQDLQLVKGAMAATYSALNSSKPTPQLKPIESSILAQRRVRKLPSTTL
Sequence of AKT2 (human) (P31751 whole entry, looked up): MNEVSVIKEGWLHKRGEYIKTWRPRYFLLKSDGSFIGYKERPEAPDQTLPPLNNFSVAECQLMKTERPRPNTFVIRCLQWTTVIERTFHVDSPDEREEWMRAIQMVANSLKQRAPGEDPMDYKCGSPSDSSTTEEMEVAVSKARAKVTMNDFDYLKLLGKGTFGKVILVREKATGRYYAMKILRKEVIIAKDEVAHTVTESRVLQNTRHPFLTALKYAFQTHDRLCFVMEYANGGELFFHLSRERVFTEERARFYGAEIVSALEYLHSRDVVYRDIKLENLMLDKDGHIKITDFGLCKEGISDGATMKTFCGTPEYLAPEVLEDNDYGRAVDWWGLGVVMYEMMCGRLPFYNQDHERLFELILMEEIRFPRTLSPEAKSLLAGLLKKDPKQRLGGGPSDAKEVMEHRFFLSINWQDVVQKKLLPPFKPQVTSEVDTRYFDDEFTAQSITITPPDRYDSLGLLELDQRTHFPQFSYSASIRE
Sequence of MAPK8 (human) (P45983 whole entry, looked up): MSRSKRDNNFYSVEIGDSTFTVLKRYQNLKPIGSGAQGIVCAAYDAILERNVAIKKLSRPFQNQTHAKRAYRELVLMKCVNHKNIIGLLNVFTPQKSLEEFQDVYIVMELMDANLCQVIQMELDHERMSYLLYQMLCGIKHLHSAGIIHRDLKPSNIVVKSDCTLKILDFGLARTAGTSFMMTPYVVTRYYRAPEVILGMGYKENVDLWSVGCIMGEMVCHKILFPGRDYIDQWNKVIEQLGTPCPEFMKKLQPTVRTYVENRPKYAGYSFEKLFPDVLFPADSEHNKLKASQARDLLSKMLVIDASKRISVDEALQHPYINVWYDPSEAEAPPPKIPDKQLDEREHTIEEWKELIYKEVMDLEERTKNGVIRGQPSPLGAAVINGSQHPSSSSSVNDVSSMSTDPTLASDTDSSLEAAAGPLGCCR
Sequence of MAPK10 (human) (P53779 whole entry, looked up): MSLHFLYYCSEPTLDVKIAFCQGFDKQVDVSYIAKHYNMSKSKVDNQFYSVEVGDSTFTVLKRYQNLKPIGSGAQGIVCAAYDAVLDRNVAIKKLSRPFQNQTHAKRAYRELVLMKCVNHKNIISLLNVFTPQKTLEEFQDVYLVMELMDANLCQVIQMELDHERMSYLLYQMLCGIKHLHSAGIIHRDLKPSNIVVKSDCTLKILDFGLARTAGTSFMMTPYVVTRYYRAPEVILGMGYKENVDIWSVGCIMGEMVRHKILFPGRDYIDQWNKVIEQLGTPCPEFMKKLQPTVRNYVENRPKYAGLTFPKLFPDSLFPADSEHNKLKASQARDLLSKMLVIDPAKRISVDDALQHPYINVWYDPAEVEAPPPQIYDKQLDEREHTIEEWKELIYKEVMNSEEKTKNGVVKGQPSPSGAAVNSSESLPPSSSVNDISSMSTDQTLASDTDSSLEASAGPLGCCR
Sequence of CAMK2A (human) (Q9UQM7 whole entry, looked up): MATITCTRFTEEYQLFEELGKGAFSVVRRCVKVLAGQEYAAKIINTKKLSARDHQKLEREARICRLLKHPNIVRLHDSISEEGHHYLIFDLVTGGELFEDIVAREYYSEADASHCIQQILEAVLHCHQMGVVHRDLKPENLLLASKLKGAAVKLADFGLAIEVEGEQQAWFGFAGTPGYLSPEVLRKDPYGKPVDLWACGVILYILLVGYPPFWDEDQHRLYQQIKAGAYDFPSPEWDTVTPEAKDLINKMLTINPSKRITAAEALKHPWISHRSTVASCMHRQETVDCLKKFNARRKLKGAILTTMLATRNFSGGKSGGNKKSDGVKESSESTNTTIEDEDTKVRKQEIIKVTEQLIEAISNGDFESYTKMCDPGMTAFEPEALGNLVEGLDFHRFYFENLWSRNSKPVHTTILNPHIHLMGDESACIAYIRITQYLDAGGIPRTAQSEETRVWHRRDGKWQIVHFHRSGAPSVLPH
Sequence of STK25 (human) (O00506 whole entry, looked up): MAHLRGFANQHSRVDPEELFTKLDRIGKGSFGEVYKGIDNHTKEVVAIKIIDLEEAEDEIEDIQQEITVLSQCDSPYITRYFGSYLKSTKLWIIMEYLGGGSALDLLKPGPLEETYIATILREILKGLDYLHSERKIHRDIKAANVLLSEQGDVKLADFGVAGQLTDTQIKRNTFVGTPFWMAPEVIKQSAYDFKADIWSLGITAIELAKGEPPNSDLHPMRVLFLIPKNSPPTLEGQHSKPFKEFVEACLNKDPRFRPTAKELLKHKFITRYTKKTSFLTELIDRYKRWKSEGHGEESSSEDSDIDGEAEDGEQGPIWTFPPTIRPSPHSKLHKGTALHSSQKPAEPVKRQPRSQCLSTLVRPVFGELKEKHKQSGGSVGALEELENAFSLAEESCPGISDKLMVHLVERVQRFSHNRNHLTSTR
Sequence of CDK11A (human) (Q9UQ88 whole entry, looked up): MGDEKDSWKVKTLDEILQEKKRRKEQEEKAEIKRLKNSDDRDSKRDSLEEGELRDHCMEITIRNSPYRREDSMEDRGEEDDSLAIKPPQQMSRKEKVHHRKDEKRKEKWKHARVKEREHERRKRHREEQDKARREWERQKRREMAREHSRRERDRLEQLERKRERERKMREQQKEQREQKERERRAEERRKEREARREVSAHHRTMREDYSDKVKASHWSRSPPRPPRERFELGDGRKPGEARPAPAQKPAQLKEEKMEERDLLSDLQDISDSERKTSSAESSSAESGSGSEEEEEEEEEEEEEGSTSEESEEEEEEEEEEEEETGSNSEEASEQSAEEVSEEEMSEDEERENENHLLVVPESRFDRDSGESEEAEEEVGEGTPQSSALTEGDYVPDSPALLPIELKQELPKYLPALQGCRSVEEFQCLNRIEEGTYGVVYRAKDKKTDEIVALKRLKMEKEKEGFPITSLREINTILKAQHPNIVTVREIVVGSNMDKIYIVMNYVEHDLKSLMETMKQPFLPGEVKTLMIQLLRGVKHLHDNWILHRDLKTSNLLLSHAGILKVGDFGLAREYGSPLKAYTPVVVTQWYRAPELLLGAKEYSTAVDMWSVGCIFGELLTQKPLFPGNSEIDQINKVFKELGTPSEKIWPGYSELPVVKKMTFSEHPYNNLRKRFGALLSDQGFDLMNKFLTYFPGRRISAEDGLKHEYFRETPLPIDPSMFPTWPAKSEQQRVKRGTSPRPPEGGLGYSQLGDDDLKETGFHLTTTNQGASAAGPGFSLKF

On to `NS(=O)(=O)c1ccc(-c2ccc(/C=C3\SC(=S)N(CC(=O)O)C3=O)o2)cc1`, for which the kinase still bound, per cent of control at AAK1 (human) stood at 34%; on ANKK1 (human), 31%; on BMPR1B (human), 27%; at CAMK2A (human), 34%; at CAMK2G (human), 33%; at CDK16 (human), 0.35%. The kinase still bound, per cent of control at CSNK1G1 (human) came to 27%; on EIF2AK2 (human), 32%; on GAK (human), 20%; on LATS2 (human), 25%; at MAP2K6 (human), 32%; on MAPK10 (human), 30%. Also, the kinase still bound, per cent of control on MAPK14 (human) was found to be 20%; at MAPK8 (human), 22%; on MAPK9 (human), 21%; on MINK1 (human), 23%; at PAK7 (human), 22%; at PIK3CB (human), 29%. For the same compound, the kinase still bound, per cent of control on PIM1 (human) stood at 33%; on PLK4 (human) it was 0.35%; at RPS6KA1 KD2 (human) it was 29%; on RPS6KA2 KD2 (human), 22%; at RPS6KA6 KD2 (human) it was 32%; at SRPK1 (human), 22%. Moreover, the kinase still bound, per cent of control at STK25 (human) was found to be 34%; on STK38L (human) it was 19%; at TAOK3 (human) it was 34%; on TLK1 (human), 22%; on TLK2 (human), 25%; on TNIK (human), 32%. Besides, the kinase still bound, per cent of control at ULK1 (human) is 29%; at ULK3 (human), 26%; at ZAP70 (human), 21%.

As for `O=C1NC(=O)C(=Cc2ccc(-c3ccc(F)cc3O)o2)C(=O)N1`, the results for the kinase still bound, per cent of control at AKT2 (human) and on CDK11A (human) were 17% and 31%, respectively.
